# Entries after “also recorded” stand apart in the source; their conditions may differ.
# Key:
# [1] = system: SW480 colon carcinoma cells; assay: siRNA experiments (MTH1 gene silencing, colony staining); assay type: cell-based, human
# Description: siRNA Experiments. Both a commercial anti-MTH1 siRNA set (SMARTpool ON-TARGETplus, Dharmacon) as well as a custom-synthesised siRNA (Sigma-Aldrich) were obtained. […]. For transfections, cells were seeded in 24-well plates at approximately 30% confluency 24 h prior to siRNA treatment. The next day, medium was aspirated and transfections were performed with […]in (Polyplus) according to manufacturer's instructions using a final siRNA concentration of 10 nM. Cells were incubated for 2-3 days, washed, detached with trypsin and replated in 6-well plates. After 7-10 days, medium was aspirated, cells were washed with PBS, fixed with ice-cold methanol, stained with crystal violet solution (0.5% in 25% methanol) and left to dry overnight. […]. Data were analysed using the GraphPad Prism software (t test, P<0.05).
# [2] = system: SH-SY5Y, NCI-H3122 and NCI-H1648 cell lysates; assay: Chemical proteomics competition pull-downs (iTRAQ) in SH-SY5Y, NCI-H3122 and NCI-H1648 lysates; assay type: binding, human; conditions: competition with 20 μM unmodified crizotinib
# [3] = system: Ewing's sarcoma family of tumours (ESFT) cells
# BJ skin fibroblasts = assay: Colony formation assay with untransformed BJ skin fibroblasts; assay type: cell-based, human; conditions: 10 days incubation
# BJ fibroblasts = assay: 8-oxo-guanine staining in BJ cells; conditions: fixed 72 h later
# MTH1 [4] = target: T1, MTH1 (Homo sapiens, UniProt P36639); assay: MTH1 catalytic assay (luminescence-based, PPi from 8-oxo-dGTP hydrolysis, PPiLight); assay type: biochemical; parameters: His-tag (TEV site) (cleaved yes); made in house; host or cells: E. coli BL-21(DE3), vector pETM-11
# ALK = assay: Drug pull-down with immobilized compounds from SH-SY5Y cells, Western blot for ALK; assay type: binding, human; conditions: SH-SY5Y lysate
# Description: Immobilization and Affinity Purification. […] Briefly, 25 nmol of compound was immobilised on 50 μL NHS-activated Sepharose 4 Fast Flow beads (GE Healthcare Bio-Sciences AB, Uppsala, Sweden).
# MRC-5 lung fibroblasts = assay: Comet assay in MRC-5 lung fibroblasts; assay type: cell-based
# Description: (§1) Comet Assay. Cells were treated with compounds for 6 days, upon which DNA single-strand breaks were assayed using the comet assay under alkali conditions. […] Cells were washed twice with PBS, harvested using a rubber scraper, pelleted by centrifugation, resuspended in PBS and mixed with 1% low-gelling-temperature agarose (Sigma type VII) that was maintained at 37° C. The mixture of cells and agarose was layered onto frosted glass slides pre-coated with 0.5% agarose and slides were placed on ice to gel. Slides were maintained in the dark for all subsequent steps. […] After electrophoresis for 25 minutes at 25 volts, slides were placed at 4° C. over-night, in the dark. The following day, slides were neutralized with 0.4 M Tris-HCl pH 7.0 for 1 hour and stained with SYBR Gold (Invitrogen, diluted 1:10,000 in distilled water) for 30 minutes. Comet tail moments (defined as the average distance migrated by the DNA multiplied by the fraction of DNA in the comet tail) were scored using the CellProfiler cell image analysis software.
# SW480 cells [5] = assay: Colony formation assay using SW480 cells; assay type: cell-based, human; conditions: K-Ras-mutated SW480 colon carcinoma
# Description: Colony Formation Assay Using SW480 Cells. One day before treatment, 10^4 cells were seeded per well in 6-well plates and incubated for 24 h. The next day DMSO (equal to highest amount of compound dilution, maximum 0.2%) or compounds in increasing concentrations were added and cells incubated at 37° C., 5% CO2, for 7-10 days. After washing with PBS (Gibco), cells were fixed with ice-cold methanol, stained with crystal violet solution (0.5% in 25% methanol) and left to dry overnight. For quantification of results, UV absorbance of crystal violet was determined at 595 nm after solubilisation by 70% ethanol. Data were analysed using non-linear regression analysis utilizing the GraphPad Prism software.
# SW480 cells [6] = assay: ATM phosphorylation in SW480 cells; assay type: cell-based, human
# [7] = system: SW480 colon carcinoma cells lysate proteins; assay type: binding, human; conditions: immobilized aminopropyl derivative of (S)-crizotinib
# [8] = Tolerability in the xenograft study: hematology, liver/heart/kidney parameters, body weight; assay type: in vivo, SCID mice
# Description: Xenograft Study. SCID mice (female, 5-6 weeks, Scanbur, Germany) were s.c. injected with 1×10^6 SW480 cells together with a matrix gel (1:1) in the sacral area. Treatment was initiated one day after cell inoculation. Vehicle or MTH1 inhibitor was administered subcutaneously once daily at 25 mg/kg for 35 days. […] Tumour size was measured twice weekly and body weight once weekly. At termination, a gross postmortem inspection was performed; blood was collected for haematological parameters and ASAT, ALAT, creatinine measurements and tumours collected in paraformaldehyde (4%) and later paraffin inbedded for immunohistology analysis. All experiments involving animals followed protocols approved by Stockholms Norra djurfOrsoksetiska namnd (laboratory animal ethical committee Stockholm). All animals were acclimatised for one week, and had free access to water and food during the experiment. Animals were under a 12-hour lightcycle, and temperature and humidity according to laboratory animal guidelines and regulations.
# [9] = system: isogenic BJ fibroblast cell lines; assay: Colony formation assays in isogenic BJ fibroblast cell lines (anti-cancer specificity); assay type: cell-based; conditions: hTERT+SV40T, hTERT+SV40T+KRAS V12
# Excerpt: FIG. 28: Anti-cancer specificity. […] As indicated, the investigated cell line panel comprised non-transformed (“wildtype”) cells, cells immortalized with telomerase (hTERT), cells transformed with hTERT and SV40 Large T antigen (SV40T), and cells transformed with hTERT, SV40T, and the KRAS mutant V12.
# The investigated cell line panel comprised non-transformed (“wildtype”) cells, cells immortalized with telomerase (hTERT), cells transformed with hTERT and SV40 Large T antigen (SV40T), and cells transformed with hTERT, SV40T, and the KRAS mutant V12 (FIG. 28).
# [10] = system: HCT116 colon carcinoma cells; assay: HCT116 isogenic cell line system (p53/p21/MLH1 status); conditions: HCT116 isogenic lines
# SW480 cells [11] = assay: Alkaline comet assay (DNA single strand breaks) in SW480 cells; assay type: cell-based, human; conditions: 6 days treatment, alkali conditions
# Description: as §1
# MDA-MB-231 = conditions: 10 μM, versus DMSO-treated cells; KRAS G13D
# [12] = system: PANC1 pancreatic cancer cells; assay: Colony formation assay using PANC1 cells; assay type: cell-based, human; conditions: K-Ras mutated PANC1
# SW480 cells [13] = assay: Indirect immunofluorescence for 53BP1 foci in SW480 cells; assay type: cell-based, human; conditions: 6 days treatment
# Description: Indirect Immunofluorescence. Cells were treated with compounds for 6 days, following which they were adhered to glass coverslips, washed with PBS and then fixed with 3% paraformaldehyde in PBS for 20 minutes. Fixed cells were rinsed with PBS and permebealised with 0.5% Triton-X-100 for 5 minutes. PBS washed slides were incubated for 1 hour with 10% FCS and 0.1% Triton-X-100 in PBS following which cells were stained with an anti-53BP1 monoclonal antibody (H-300, Santa Cruz, diluted 1:600), in 10% FCS and 0.1% Triton-X-100 in PBS. […] After a PBS wash, DNA was counterstained with DAPI (Sigma-Aldrich) for 10 minutes and the coverslips were mounted in Fluorescent Mounting Medium (Dako). Images were analysed with a Zeiss fluorescent microscope at 63 times magnification with supporting software.
# MCF-7 = conditions: 10 μM, versus DMSO-treated cells
# SW480 cells [14] = assay: SW480 mouse xenograft study; assay type: in vivo, SCID mice; conditions: 25 mg/kg s.c. once daily, 35 days
# Description: Xenograft Study. SCID mice (female, 5-6 weeks, Scanbur, Germany) were s.c. injected with 1×10^6 SW480 cells together with a matrix gel (1:1) in the sacral area. Treatment was initiated one day after cell inoculation. Vehicle or MTH1 inhibitor was administered subcutaneously once daily at 25 mg/kg for 35 days. MTH1 inhibitor was diluted in 1% DMSO, 10% ethanol, 10% cremaphore, 10% Tween 80, 69% PBS. Tumour size was measured twice weekly and body weight once weekly. At termination, a gross postmortem inspection was performed; blood was collected for haematological parameters and ASAT, ALAT, creatinine measurements and tumours collected in paraformaldehyde (4%) and later paraffin inbedded for immunohistology analysis. All experiments involving animals followed protocols approved by Stockholms Norra djurfOrsoksetiska namnd (laboratory animal ethical committee Stockholm). All animals were acclimatised for one week, and had free access to water and food during the experiment. Animals were under a 12-hour lightcycle, and temperature and humidity according to laboratory animal guidelines and regulations.
# MTH1 [15] = target: T1, MTH1; assay: Isothermal titration calorimetry (direct binding assay); parameters: His-tag (TEV site) (cleaved yes); made in house; host or cells: E. coli BL21 DE3; conditions: 15° C., 50 mM Tris-HCl pH 7.8, 150 mM NaCl
# [16] = 25 mg/kg s.c. 35 days, EDTA plasma, mean ± SD
# [17] = 25 mg/kg s.c. 35 days, mean ± SD
# [18] = error of nonlinear least squares fit
compound,measurement,setting,value
"anti-MTH1 siRNA: siRNA against MTH1; custom sequence CGACGACAGCUACUGGUUU (SEQ ID No. 48) or SMARTpool set (listed as RNA, chemistry not given here)",viability of SW480 cells after MTH1 gene silencing,[1],impairs viability
"C[C@@H](Oc1cc(-c2cnn(C3CCNCC3)c2)cnc1N)c1c(Cl)ccc(F)c1Cl [(R)-crizotinib, 3-[1-(2,6-dichloro-3-fluoro-phenyl)-ethoxy]-5-(1-piperidin-4-yl-1H-pyrazol-4-yl)-pyridin-2-ylamine]",targets identified by chemical proteomics,[2],common target of crizotinib in all samples
same,growth inhibition of ESFT cells,[3],inhibited the growth of these cells at low nanomolar concentrations
same,toxicity on non-transformed BJ skin fibroblasts (colony formation),BJ skin fibroblasts; listed as (R)-enantiomer,significantly impairs the growth; also recorded: higher toxicity
same,staining of anti-8-oxo-guanine antibody,BJ fibroblasts,not
CC(Oc1cc(-c2cnn(C3CCN(CCCN)CC3)c2)cnc1N)c1c(Cl)ccc(F)c1Cl (centres unmarked) [CeMM-146],inhibition of MTH1 catalytic activity (in words),MTH1 [4]; 8-oxo-dGTP hydrolysis,nanomolar inhibition
same,enrichment / binding of ALK isoforms by immobilized compound,ALK,enriches both ALK isoforms to highest extent
"CC(Oc1cc(-c2cnn(C3CCNCC3)c2)cnc1N)c1c(Cl)ccc(F)c1Cl (racemic) [racemic crizotinib, 3-[1-(2,6-dichloro-3-fluoro-phenyl)-ethoxy]-5-(1-piperidin-4-yl-1H-pyrazol-4-yl)-pyridin-2-ylamine]",DNA damage in comet assay,MRC-5 lung fibroblasts,induced DNA damage
"Cn1cc(-c2ccc3nnc(C(F)(F)c4ccc5ncccc5c4)n3n2)cn1 [JNJ-38877605, reference compound]",colony formation / growth of SW480 cells,SW480 cells [5],does not suppress growth
"C[C@H](Oc1cc(-c2cnn(C3CCNCC3)c2)cnc1N)c1c(Cl)ccc(F)c1Cl [(S)-enantiomer of crizotinib, (S)-3-[1-(2,6-dichloro-3-fluoro-phenyl)-ethoxy]-5-(1-piperidin-4-yl-1H-pyrazol-4-yl)-pyridin-2-ylamine]",ATM phosphorylation,SW480 cells [6],increase of ATM phosphorylation
same,main cellular target in SW480 cells,[7],MTH1 (gene name NUDT1) is the main target
same,P-ALAT,[8]; [16],0.26 ± 0.07 mCat/l
same,p-ASAT,[8]; [16],1.10 ± 0.32 mCat/l
same,p-Creatinine,[8]; [16],18.6 ± 4.24 µM
same,HBG,[8]; [17],134 ± 6.25 g/L
same,Lymphocytes,[8]; [17],0.23 ± 0.06 10^9/l
same,MCH,[8]; [17],14.07 ± 0.30 pg
same,MCHC,[8]; [17],327 ± 4.90 g/L
same,MCV,[8]; [17],43.02 ± 1.07 fL
same,Monocytes,[8]; [17],0.16 ± 0.11 10^9/l
same,Neutrophils,[8]; [17],1.50 ± 0.51 10^9/l
same,RBC,[8]; [17],9.51 ± 0.37 10^12/l
same,Thrombocytes,[8]; [17],828 ± 160 10^9/l
same,WBC,[8]; [17],1.90 ± 0.64 10^9/l
same,tolerability,"[8]; 25 mg/kg s.c. once daily, 35 days",well-tolerated
same,change in haematological parameters,"[8]; 25 mg/kg s.c., 35 days, versus vehicle",no significant change
same,toxicity to transformed versus wildtype / hTERT-immortalized BJ cells,[9],more toxic to transformed cells than to wildtype cells
same,effect of loss of p21 on sensitivity of HCT116 cells,[10],seems to increase the sensitivity
same,effect of p53 status and functional MLH1 on activity in HCT116 cells,[10],do not affect the activity
same,tail moment in the comet assay,SW480 cells [11],yielded a significant tail moment
same,colony formation / growth of SW480 cells,SW480 cells [5],efficiently inhibited colony formation; also recorded: considerably more effective
same,toxicity on non-transformed BJ skin fibroblasts (colony formation),BJ skin fibroblasts,does not exhibit any increased unspecific cytotoxicity
same,growth of MDA-MB-231 in colony formation assay,MDA-MB-231,significantly decreased the growth
same,colony formation of PANC1 cells,[12],efficiently inhibited colony formation
same,number of 53BP1 foci,SW480 cells [13],increase the number of 53BP1 foci
same,staining of anti-8-oxo-guanine antibody,BJ fibroblasts,increased staining
same,growth of MCF-7 in colony formation assay,MCF-7,significantly decreased the growth
same,reduction in tumour volume,SW480 cells [14],more than 50%
COc1ccc2nc3c(c(C)nn3C)c(NCCOCCO)c2c1 [SCH51344],TΔS,MTH1 [15],3.17 kcal/mol
same,Kd,MTH1 [15]; [18],49 ± 5.6 nM
same,ΔH,MTH1 [15]; [18],-6.479 ± 0.045 kcal/mol
same,tail moment in the comet assay,SW480 cells [11],yielded a significant tail moment
same,number of 53BP1 foci,SW480 cells [13],increase the number of 53BP1 foci
"COc1cc(N2CCC(N3CCN(C)CC3)CC2)ccc1Nc1ncc(Cl)c(Nc2ccccc2S(=O)(=O)C(C)C)n1 [NVP-TAE684, reference compound]",inhibition of MTH1 catalytic activity at 100 μM,"MTH1 [4]; concentrations of 100 μM, data not shown",did not exhibit any significant inhibition
